# Results: US20260083859A1, “SUSTAINED TRANSGENE EXPRESSION OF MODIFIED ERT2 PEPTIDE-SUICIDE PROTEIN FUSION POLYPEPTIDES” (Senti Biosciences, Inc., priority 2023, published 2026)
# Legend:
# [1] = test system: PSC-derived myeloid progenitor cells; assay: TamCasp9 Safety Switch activation in PSC-derived myeloid progenitor cells, AOPI staining, Incucyte SX5; assay type: cell-based, human; conditions: unedited differentiated myeloid progenitors, combination 4-OHT and Endoxifen treatment
# Method: A hPSC line engineered with TamCasp9 Construct 1 and an unedited parental control hPSC line were differentiated into myeloid progenitor cells through the addition of various growth factors and small molecules. Differentiated cells were plated at 1×10^5 cells/cm^2 in an ultra-low attachment cell culture plate for further myeloid cell maturation. After 7 days in maturation medium, cells were collected and frozen down.
# For testing of TamCasp9 Safety Switch activation, myeloid cells were plated at 1.5×10^5 cells/cm^2 in a 96-well tissue culture plate with a 1:750 dilution of ViaStain AOPI Staining Solution (Nexcelom) in X-VIVO 15 Medium with 10 ng/mL GM-CSF. The kill switch was induced with 0, 1, 10 or 100 uM of Endoxifen over 3 days and images were collected every 6 hours on the Incucyte SX5 (Sartorius).
# To better model predicted drug concentrations in a patient by testing activation of the kill switch against a range of tamoxifen metabolites, the PSC clone Construct 1 c.165, engineered to incorporate an exemplary modified ERT2 peptide-suicide protein fusion polypeptide construct (Table 3), was differentiated to myeloid progenitor cells as depicted in FIG. 13A. Differentiated cells were plated at 1×10^5 cells/cm^2 in an ultra-low attachment cell culture plate for further myeloid cell maturation. After 7 days in maturation medium, cells were collected and frozen down. For testing of TamCasp9 Safety Switch activation, myeloid cells were plated at 1.0×10^5 cells/cm^2 in a 96-well tissue culture plate with a 1:750 dilution of ViaStain AOPI Staining Solution (Nexcelom) in X-VIVO 15 Medium with 10 ng/mL GM-CSF. The kill switch was induced with varying concentrations of combination 4-OHT and Endoxifen treatment over 4 days and images were collected every 4 hours on the Incucyte SX5, with 12 hour timepoints plotted on a graph (Sartorius) (FIG. 14). Either 2.5 nM or 5 nM of Endoxifen was tested in combination with either 0.5 nM, 1 nM or 10 nM of 4-OHT. 100 nM Endoxifen was added as positive killing control as per FIG. 13E.
# iPSCs = assay: Apoptosis induction in transfected iPSCs monitored by microscopy and Incucyte tracking; assay type: cell-based, human; conditions: unedited control cells, 1 nM 4-OHT, up to two days
# [2] = test system: PSC-derived dopaminergic neurons; assay: Apoptosis in PSC-derived dopaminergic neurons (Example 9); assay type: cell-based; conditions: neurons from PSCs engineered with Table 3 constructs; 1, 5, 50 or 100 nM 4-OHT, or 5, 10, 50 or 100 nM Endoxifen
# Method: To validate conservation of kill switch function after PSCs are differentiated to dopaminergic neurons, PSCs engineered to incorporate the modified ERT2 peptide-suicide protein fusion constructs outlined in Table 3 are differentiated into dopaminergic neurons. Thereafter PSC-derived dopaminergic neurons are treated with Endoxifen, 4-OHT or media alone and tested for incorporation of the modified ERT2 peptide-suicide protein fusion polypeptide construct in the STEL site.
# To test function of the modified ERT2 peptide-suicide protein fusion polypeptides in PSC-derived dopaminergic neurons, dopaminergic neurons are cultured, then treated with either lnM, 5 nM, 50 nM, or 100 nM 4-OHT; or 5 nM, 10 nM, 50 nM, or 100 nM Endoxifen, before assessment of apoptosis.
# human iPSCs = assay: Conventional PCR (agarose gel) of knock-in iPSC pools, with or without 4-OHT; assay type: cell-based; conditions: iPSC pools treated with 1 nM 4-OHT
# Method: Modified ERT2 peptide-suicide protein fusion polypeptide encoding constructs were delivered to human iPSCs via Nucleofection with a GAPDH targeting ribonucleoprotein (RNP) complex comprising of Cpf1 endonuclease and a single guide RNA (sgRNA) targeting the coding sequence of the GAPDH gene. The sgRNA comprised a sequence 5′ […] 3′ (SEQ ID NO: 60). Briefly, iPSCs were cultured in Essential 8 (E8) medium and maintained at 37° C. at 5% CO2 level between passages. Passages were done at 75 to 80% confluency. On the day of Nucleofection, iPSCs were thawed and immediately Nucleofected in Lonza P3 Primary Cell Nucleofection buffer. 7.5 μg of each plasmid construct (BRC00058-61) were Nucleofected into iPSCs using GAPDH Cpf1 RNP with LONZA 4D Nucleofector. The Nucleofected cells were then plated at 50,000 cells/cm^2 per well of a 6-well plate and grown in E8 medium (plus Rock inhibitor Y-27632 from Tocris) for 72 to 96 hours. Knock-in pools were screened for integration 7d post-Nucleofection using ddPCR, as well as conventional PCR.
# iPSC clones = assay: Apoptotic efficacy in individual construct clones treated with 4-OHT, Endoxifen or combinations; assay type: cell-based, human; conditions: clone Construct 1 c.165
# Method: Next, individual clones that were determined to be suitable for further assessments were evaluated for 24 hours in the presence of 4-OHT at two different concentrations.
# Individual Construct 1-4 clones were also assessed for their responses to another tamoxifen metabolite, Endoxifen. Clones were evaluated for 24 hours in the presence of Endoxifen at three different concentrations.
# Tamoxifen is a prodrug that is broken down into its active metabolites in vivo. To model predicted drug concentrations in a patient, the clone Construct 1 c.165 was treated with various combinations of 4-OHT and Endoxifen, wherein 1.25 nM Endoxifen was combined with a concentration of 4-OHT ranging between 0.125 nM to 1 nM (FIG. 12A). […] In the next evaluation, 0.125 nM 4-OHT was combined with either 0.625 or 1.25 nM Endoxifen (FIG. 12B).
# [3] = test system: PSC-derived microglial precursor cells or myeloid progenitor cells; assay: Apoptosis in PSC-derived microglial precursor cells or myeloid progenitor cells (Example 8); assay type: cell-based; conditions: cells from PSCs engineered with Table 3 constructs; 1, 5, 50 or 100 nM 4-OHT, or 5, 10, 50 or 100 nM Endoxifen
# Method: To validate conservation of kill switch function after PSCs are differentiated to precursor cells or myeloid progenitor cells, PSCs engineered to incorporate the modified ERT2 peptide-suicide protein fusion polypeptide constructs outlined in Table 3 were differentiated into microglial precursor cells or myeloid progenitor cells. Thereafter PSC-derived microglial precursor cells or myeloid progenitor cells are treated with Endoxifen, 4-OHT or media alone and tested for incorporation of the modified ERT2 peptide-suicide protein fusion polypeptide in the STEL site.
# To test function of the modified ERT2 peptide-suicide protein fusion polypeptide constructs in PSC-derived microglial precursor cells or myeloid progenitor cells, cells are cultured, then treated with either lnM, 5 nM, 50 nM, or 100 nM 4-OHT, or 5 nM, 10 nM, 50 nM, or 100 nM Endoxifen, before assessment of apoptosis.
substance,measurement,setting,value
4-hydroxytamoxifen [Construct 4-OHT],apoptosis in unedited cells,[1],did not induce apoptosis
same,cell growth and density,iPSCs,no detectable effect on cell health and growth
same,apoptosis,[2],resulted in apoptosis
same,amount of cells carrying integration of kill-switch fusion sequences (PCR band intensity),human iPSCs,reduced the amount of cells that carried integration of the kill-switch fusion sequences at the GAPDH locus
same,lowest effective concentration in 4-OHT-Endoxifen combination,iPSC clones,0.125 nM
same,apoptosis,[3],resulted in apoptosis
